Assay results published in patent US7829582B2, “Piperidinyl substituted pyrrolidinones as inhibitors of 11-beta-hydroxysteroid dehydrogenase 1” (Eli Lilly and Company, priority 2006, dated 2010).

What was measured:
11β-HSD1 [1] = biological target: T1, 11β-HSD1 (Homo sapiens, UniProt P28845); assay: Human aortic smooth muscle cell assay (cortisone to cortisol conversion); format: cell-based; settings: primary human aortic smooth muscle cells (AoSMC), hTNFα-induced 11β-HSD1, cortisol measured by immunoassay
T1 construct: endogenous in cells; host or cells: primary human aortic smooth muscle cells (AoSMC), induced with hTNFα
T1 sequence (P28845 whole entry): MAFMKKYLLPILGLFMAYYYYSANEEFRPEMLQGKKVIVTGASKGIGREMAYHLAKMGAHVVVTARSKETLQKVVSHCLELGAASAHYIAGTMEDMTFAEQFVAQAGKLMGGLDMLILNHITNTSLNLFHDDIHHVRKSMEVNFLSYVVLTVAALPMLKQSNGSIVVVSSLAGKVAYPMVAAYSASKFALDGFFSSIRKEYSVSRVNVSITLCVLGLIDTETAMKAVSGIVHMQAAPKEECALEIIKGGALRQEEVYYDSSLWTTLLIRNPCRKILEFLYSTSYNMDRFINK
Experimental: Human Aortic Smooth Muscle Cell Assay
Primary human aortic smooth muscle cells (AoSMC) are cultured in 5% FBS growth medium to a passage number of 6, then pelleted by centrifugation and resuspended at a density of 9×10^4 cells/mL in 0.5% FBS assay medium containing 12 ng/mL hTNFα to induce expression of 11β-HSD1. Cells are seeded into 96-well tissue culture assay plates at 100 μL/well (9×10^3 cells/well) and incubated for 48 hours at 37° C., 5% CO2. Following induction, cells are incubated for 4 hours at 37° C., 5% CO2 in assay medium containing test compounds then treated with 10 μL/well of 10 μM cortisone solubilized in assay medium, and incubated for 16 hours at 37° C., 5% CO2. Medium from each well is transferred to a plate for subsequent analysis of cortisol using a competitive fluorescence resonance time resolved immunoassay. In solution, an allophycocyanin (APC)-cortisol conjugate and free cortisol analyte compete for binding to a mouse anti-cortisol antibody/Europium (Eu)-anti mouse IgG complex. Higher levels of free cortisol result in diminishing energy transfer from the Europium-IgG to the APC-cortisol complex resulting in less APC fluorescence. Fluorescent intensities for Europium and APC are measured using a LJL Analyst AD. Europium and APC excitation is measured using 360 nm excitation and 615 nm and 650 nm emission filters respectively. Time resolved parameters for Europuium were 1000 μs integration time with a 200 μs delay. APC parameters are set at 150 μs integration time with a 50 μs delay. Fluorescent intensities measured for APC are modified by dividing by the Eu fluorescence (APC/Eu). This ratio is then used to determine the unknown cortisol concentration by interpolation using a cortisol standard curve fitted with a 4-parameter logistic equation. These concentrations are then used to determine compound activity by plotting concentration versus % inhibition, fitting with a 4-parameter curve and reporting the IC50.

11β-HSD1 [2] = biological target: T2, 11β-HSD1 (Mus musculus, UniProt P50172); assay: Acute in vivo cortisone conversion assay; settings: male C57BL/6 mice, oral dose 10 mg/kg, cortisone challenge 16 hours post dose, serum cortisol by LC-MS/MS
T2 construct: tissue Harlan Sprague Dawley; host or cells: whole animal, male C57BL/6 mice; serum cortisol read-out
T2 sequence (P50172 whole entry): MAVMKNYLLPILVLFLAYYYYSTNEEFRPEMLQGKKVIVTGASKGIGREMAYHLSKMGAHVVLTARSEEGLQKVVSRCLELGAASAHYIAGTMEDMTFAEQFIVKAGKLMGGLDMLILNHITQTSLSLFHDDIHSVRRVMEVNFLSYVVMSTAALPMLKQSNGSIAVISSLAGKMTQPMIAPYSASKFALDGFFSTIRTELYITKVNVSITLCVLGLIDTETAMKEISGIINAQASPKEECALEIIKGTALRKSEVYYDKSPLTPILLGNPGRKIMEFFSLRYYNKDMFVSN
Experimental: Acute In Vivo Cortisone Conversion Assay
In general, compounds are dosed orally into mice, the mice are challenged with a subcutaneous injection of cortisone at a set timepoint after compound injection, and the blood of each animal is collected some time later. Separated serum is then isolated and analyzed for levels of cortisone and cortisol by LC-MS/MS, followed by calculation of mean cortisol and percent inhibition of each dosing group. Specifically, male C57BL/6 mice are obtained from Harlan Sprague Dawley at average weight of 25 grams. Exact weights are taken upon arrival and the mice randomized into groups of similar weights. Compounds are prepared in 1% w-w HEC, 0.25% w-w polysorbate 80, 0.05% w-w Dow Corning antifoam #1510-US at various doses based on assumed average weight of 25 grams. Compounds are dosed orally, 200 μl per animal, followed by a subcutaneous dose, 200 μl per animal, of 30 mg/kg cortisone at 1 to 24 hours post compound dose. At 10 minutes post cortisone challenge, each animal is euthanized for 1 minute in a CO2 chamber, followed by blood collection via cardiac puncture into serum separator tubes. Once fully clotted, tubes are spun at 2500×g, 4° C. for 15 minutes, the serum transferred to wells of 96-well plates (Corning Inc, Costar #4410, cluster tubes, 1.2 ml, polypropylene), and the plates are frozen at −20° C. until analysis by LC-MS/MS. […]

SMILES | IC50 (11β-HSD1 [1]) | % Inhibition after 16 hours (dose of 10 (mg/kg)) (11β-HSD1 [2])
CS(=O)(=O)N1CCC(N2CC[C@@H](Cc3c(Cl)cc(-c4ccc(F)cc4)cc3Cl)C2=O)CC1 [Example 1, (R)-3-(3,5-Dichloro-4′-fluoro-biphenyl-4-ylmethyl)-1-(1-methanesulfonyl-piperidin-4-yl)-pyrrolidin-2-one] | 85 nM | 
COC(=O)N1CCC(N2CC[C@@H](Cc3c(Cl)cc(-c4ccc(F)cc4)cc3Cl)C2=O)CC1 [Example 3, 4-[(R)-3-(3,5-Dichloro-4′-fluoro-biphenyl-4-ylmethyl)-2-oxo-pyrrolidin-1-yl]-piperidine-1-carboxylic acid methyl ester] | 84.5 nM | 
COC(=O)N1CCC(N2CC[C@@H](Cc3c(Cl)cc(-c4ccc(C(=O)N5CCC(C(F)(F)F)CC5)cc4)cc3Cl)C2=O)CC1 [Example 4, 4-{(R)-3-[3,5-Dichloro-4′-(4-trifluoromethyl-piperidine-1-carbonyl)-biphenyl-4-ylmethyl]-2-oxo-pyrrolidin-1-yl}-piperidine-1-carboxylic acid methyl ester] | 231 nM | 92%
CNC(=O)N1CCC(N2CC[C@@H](Cc3c(Cl)cc(-c4ccc(F)cc4)cc3Cl)C2=O)CC1 [Example 6, 4-[(R)-3-(3,5-Dichloro-4′-fluoro-biphenyl-4-ylmethyl)-2-oxo-pyrrolidin-1-yl]-piperidine-1-carboxylic acid methylamide] | 73 nM | 65%
O=C(Nc1ccccc1)N1CCC(N2CC[C@@H](Cc3c(Cl)cc(-c4ccc(F)cc4)cc3Cl)C2=O)CC1 [Example 8, 4-[(R)-3-(3,5-Dichloro-4′-fluoro-biphenyl-4-ylmethyl)-2-oxo-pyrrolidin-1-yl]-piperidine-1-carboxylic acid phenylamide] | 159 nM | 
